Like-named read-outs stand apart in the source and are kept apart here.
Experiments:
[1] = system: human macrophage cultures; assay: TNF release from LPS-stimulated human macrophage cultures (TNF ELISA); format: cell-based; details: for EC50: Macrophage, human macrophages, LPS 100 ng/ml 4 h, n=9, read-out: E.C.50, effective concentration that inhibited 50% of the TNF response
[2] = system: TNF mRNA; assay: RNase protection assay of TNF mRNA in LPS-stimulated macrophages; format: cell-based, human; details: agonist 100 µM, 5 min before 2 hour LPS 100 ng/ml (FIG. 2)
[3] = system: TNF; assay: TNF immunohistochemistry of cell-associated TNF in human macrophage cultures; format: cell-based; details: ACh 100 µM, 5 min before LPS 100 ng/ml, fixed after 2 hours (FIG. 3)
Description: TNF immunohistochemistry was performed as follows. Human macrophages were differentiated as described above, and grown on glass chamber slides (Nunc, Naperville, Ill.). Slides were incubated in a blocking solution (1% BSA, 5% normal goat serum, 0.3% Triton X-100 in PBS) for 1 hour at room temperature and then incubated for 24 hours at 4° C. with a primary mouse anti-human TNF monoclonal antibody (Genzyme, Cambridge, Mass.) diluted 1:100 in PBS containing 0.3% Triton X-100, 0.1% BSA, and 3% normal goat serum. Washed sections were incubated for 2 hours with secondary biotinylated anti-mouse IgG (1:200, Vector Laboratories, Inc., Burlingame, Calif.). The reaction product was visualized with 0.003% hydrogen peroxide and 0.05% 3,3′-diaminobenzidine tetrahydrochloride as a chromogen. Negative controls were incubated in the absence of primary antibodies (not shown). Slides were analyzed on a light microscope (Olympus BX60, Japan) using a MetaMorth Imaging System (Universal Imaging Co., West Chester, Pa.).
To determine whether acetylcholine inhibited macrophage TNF synthesis or macrophage TNF release, monoclonal anti-TNF antibodies were used to label cell-associated TNF in human macrophage cultures. In those experiments (FIG. 3), cells were exposed to either ACh (100 µM), either alone or in the presence of pyridostigmine bromide (1 mM), five minutes before LPS (100 ng/ml) treatment. […]

[4] = system: IL-1β; assay: IL-1β release from LPS-stimulated human macrophage cultures (ELISA); format: cell-based; details: ACh with pyridostigmine bromide 1 mM, LPS 100 ng/ml, 20 hours (FIG. 5)
Description: (§1) To assess specificity, the release of other macrophage-derived cytokines was measured in LPS-stimulated macrophage cultures treated with acetylcholine. In those experiments, human macrophage cultures were incubated with ACh at the indicated concentrations in the presence of pyridostigmine bromide (1 mM) and LPS (100 ng/ml) for 20 hours. IL-1β (FIG. 5), IL-6 (FIG. 6) and IL-10 (FIG. 8) levels were measured in media using commercially available ELISA kits (R&D Systems Inc., Minneapolis, Minn.). IL-18 (FIG. 7) levels were determined by specific ELISA (Medical & Biological Laboratories Co., Ltd., Nagoya, Japan). Each sample was analyzed in triplicate. Data are expressed as Mean.+−.SEM from 4 separate experiments using macrophages prepared from 4 separate healthy donors.

[5] = system: IL-6; assay: IL-6 release from LPS-stimulated human macrophage cultures (ELISA); format: cell-based; details: ACh with pyridostigmine bromide 1 mM, LPS 100 ng/ml, 20 hours (FIG. 6)
Description: as §1

[6] = system: IL-18; assay: IL-18 release from LPS-stimulated human macrophage cultures (ELISA); format: cell-based; details: ACh with pyridostigmine bromide 1 mM, LPS 100 ng/ml, 20 hours (FIG. 7)
Description: as §1

[7] = system: IL-10; assay: IL-10 release from LPS-stimulated human macrophage cultures (ELISA); format: cell-based; details: ACh with pyridostigmine bromide 1 mM, LPS 100 ng/ml, 20 hours (FIG. 8)
Description: as §1

[8] = system: macrophage cultures; assay: MTT staining and Trypan blue exclusion of macrophage cultures treated with LPS and acetylcholine; format: cell-based, human; details: macrophage cultures treated with LPS and acetylcholine (not shown)
[9] = system: IL-1β mRNA; assay: IL-1β mRNA levels, colorimetric microplate assay (Quantikine mRNA); format: cell-based, human; details: acetylcholine 100 nM, LPS 2 hours; n=3; LPS alone 1974
From the text: (§2) The molecular mechanism of acetylcholine inhibition of IL-1β and IL-6 was investigated further by measuring gene-specific mRNA levels with biotin-labeled capture oligonucleotide probes in a calorimetric microplate assay (Quantikine mRNA, R&D Systems, Inc., Minneapolis, Minn.).

[10] = system: IL-6 mRNA; assay: IL-6 mRNA levels, colorimetric microplate assay (Quantikine mRNA); format: cell-based, human; details: LPS-stimulated macrophages; n=3; LPS alone 1716
From the text: as §2

[11] = system: differentiated human macrophages; assay: Acetylcholine suppression of cytokine synthesis (TNF), 'our own studies' compared with macrophage data; format: cell-based; details: printed as differentiated human macrophages, n=3, read-out: E.C.50 for inhibiting TNF
[12] = system: nicotinic or muscarinic acetylcholine receptors
[13] = system: Murine RAW 264.7 macrophage-like cells; details: nicotine 0.1-100 µM, 5 min before LPS 500 ng/ml, medium collected after 20 hr (FIG. 15)
Description: Experiments were performed to determine whether the inhibitory effect of cholinergic agonists on proinflammatory cytokines applied to HMG-1. Murine RAW 264.7 macrophage-like cells (American Type Culture Collection, Rockville, Md., USA) were grown in culture under DMEM supplemented with 10% fetal bovine serum and 1% glutamine. When the cells were 70-80% confluent, the medium was replaced by serum-free OPTI-MEM 1 medium. […] Culture medium was collected after 20 hr. The culture medium was concentrated with a Centricon T 10 filter, then analyzed by western blot, using an anti-HMG-1polyclonal antisera (WO 00/47104) and standard methods. Band densities were determined using a Bio-Rad Imaging densitometer.

[14] = ACh with pyridostigmine bromide 1 mM
[15] = human macrophage cultures, LPS 100 ng/ml for 4 hours (FIG. 1)

Compound: CC(=O)OCC[N+](C)(C)C.[Cl-] [acetylcholine, acetylcholine chloride]
- EC50 [1, 14]: 20.2 nM
- inhibition of TNF release [1, 15]: inhibited TNF release in a dose dependent manner
- inhibition of TNF release ([1]; macrophage culture media conditioned by exposure to LPS for 20 hours (not shown)): Comparable inhibition of TNF release
- TNF mRNA levels [2]: did not decrease
- LPS-stimulated TNF immunoreactivity in macrophages [3]: significantly attenuated
- IL-1β release [4]: dose-dependently inhibits the release
- IL-6 release [5]: dose-dependently inhibits the release
- IL-18 release [6]: dose-dependently inhibits the release
- IL-10 release [7]: does not prevent the constitutive release
- cytotoxicity (MTT, Trypan blue exclusion) [8]: not due to cytotoxicity
- acetylcholine-treated LPS-stimulated IL-1β mRNA [9]: 2128 attomole/ml
- acetylcholine-treated LPS-stimulated IL-6 mRNA [10]: 1872 attomole/ml
- EC50 [11]: 800 nM
- inhibition of TNF release [12]: 80%

Compound: CN1[C@@H]2CC[C@H]1C[C@@H](OC(=O)C(CO)c1ccccc1)C2 (some centres unmarked) [atropine]
- TNF production in vehicle-treated cultures ([12]; without acetylcholine (not shown)): Neither atropine nor α-conotoxin altered TNF production

Compound: C[N+](C)(C)CCOC(N)=O [carbachol]
- inhibition of TNF release [1, 15]: Inhibition of TNF was also observed

Compound: C[C@@H]1O[C@H](C[N+](C)(C)C)C[C@H]1O [muscarine]
- EC50 ([1]; P<0.01 vs nicotine or acetylcholine): 42400 nM
- inhibition of TNF release [1, 15]: inhibited TNF release in a dose dependent manner
- TNF mRNA levels [2]: do not reduce LPS-stimulated TNF mRNA levels

Compound: CN1CCCC1c1cccnc1 (centres unmarked) [nicotine]
- EC50 [1, 14]: 8.3 nM
- inhibition of TNF release [1, 15]: inhibited TNF release in a dose dependent manner
- TNF mRNA levels [2]: do not reduce LPS-stimulated TNF mRNA levels
- HMG-1 production [13]: inhibited HMG-1 production in a dose-dependent manner
